Data taken from US20260018245A1, “SYSTEMS AND METHODS FOR IDENTIFYING AND TARGETING COLLATERAL LETHAL GENES” (The Regents of the University of Michigan, priority 2022, published 2026).

Columns and labels:
Format in all cases: cell-based
[1] = tested on: reductive MTHFD2 flux in SKOV3 cells; experiment: Reductive MTHFD2 flux by 2,3,3-[2H]-serine tracing; details: SKOV3 treated with MTHFD2 inhibitor 60 μM
Protocol: (§1) FIG. 4 Dynamic flux analysis with parallel tracers to quantify oxidative MTHFD2 flux. a, Oxidative MTHFD2 flux and percentage decrease in OCRfollowing MTHFD2 inhibition in SKOV3 cells treated with rotenone (0, 31, 62, 125, 250, 500 or 1,000 nM) and MTHFD2 inhibitor (0 or 60 μM). Oxidative MTHFD2 flux is proportional to [2H1]-serine/[2H1]-NADH enrichment in cells cultured with 4-[2H]-glucose for 8 h. Percentage decrease in OCR is estimated in SKOV3 cells treated with 60 μM MTHFD2i compared with 0 μM MTHFD2i. Oxidative flux data are combined from two independent experiments (n=4), with mean±s.d. estimated using error propagation. […] (n=6) and analysed using two-tailed Welch's t-test. e, Ratio of [2H2]-serine/[2H]-NADH enrichment in SKOV3 and OVCAR8 cells at 2 h after combined tracer introduction of 4-[2H]-glucose and [2H]-formate, representing the normalized contribution of [2H]-NADH to [2H2]-serine via oxidative MTHFD2 flux. Data combined from two independent experiments (n=6), with mean±s.d. estimated using error propagation and analysed by two-tailed Welch's t-test. f, [2H2]-serine enrichment in SKOV3 cells expressing shScramble or shUQCR11 at 2 h after combined tracer introduction of 4-[2H]-glucose and [2H]-formate. […] (n=5) and analysed using one-tailed non-parametric Mann-Whitney test. […]

[2] = tested on: oxidative MTHFD2 flux in SKOV3 cells; experiment: Oxidative MTHFD2 flux by 4-[2H]-glucose tracing; details: SKOV3 treated with rotenone and MTHFD2 inhibitor 60 μM
Protocol: as §1

[3] = tested on: SKOV3 and OVCAR8 cells; experiment: De novo pyrimidine synthesis flux with [13C4]-aspartate tracer; details: SKOV3 and OVCAR8, with vs without MTHFD2 inhibitor
[4] = tested on: UQCR11-null HeyA8 cells; experiment: Resistance to MTHFD2 inhibition upon AOX expression or UQCR11 overexpression; details: 72 h
Source text: (§2) FIG. 11 Investigating alternative metabolic pathways to rescue UQCR11-null cells from collateral lethal targeting of MTHFD2. (a) Correlation between NDUFS7 mRNA expression and copy-number alterations of the 19p13.3 locus, represented by UQCR11 copy-number in TCGA OVCA dataset (n=303). Correlations estimated using Spearman's rank correlation test. (b) Gene expression of NDUFS7 measured via qRT-PCR in UQCR11-null lines (OVCAR8, CAOV3, HeyA8) relative to NDUFS7 expression in UQCR11-intact line (SKOV3). Data representative of two independent experiments presented as mean±s.d. (n=5), analyzed using ordinary one-way ANOVA with Dunnett's correction for multiple comparisons. (c) Doseresponse curve for single-agent inhibition in SKOV3 cells by either Complex I inhibitor, rotenone, or MTHFD2 inhibitor. […] Data are representative of two independent experiments and presented as mean±s.e.m (n=3) and analyzed using two-tailed Welch's t-test. […] Viability decrease was measured 72 h after inhibitor treatment relative to vehicle control. […] (n=6) and analyzed using ordinary 2-way ANOVA with Sidak's correction for multiple comparisons. […] (n=4) and analyzed using two-tailed Welch's t-test. […] Viability decrease was measured 72 h after inhibitor treatment relative to vehicle control. […] (n=5) and analyzed using two-tailed Welch's t-test.

[5] = tested on: SKOV3 cells; experiment: Two-drug synergy of rotenone and MTHFD2 inhibitor on viability (SynergyFinder); details: MTHFD2 inhibitor combined with complex I inhibitor rotenone
Source text: as §2

Cc1c(N2CCN(C)[C@@H](C)C2)ccc2c3c(c(=O)oc12)CN(C(=O)c1ccc(NS(C)(=O)=O)c(OC(F)(F)F)c1)CC3 [DS18561882]
reductive MTHFD2 flux [1]: greatly reduced | oxidative MTHFD2 flux [2]: suppressed | de novo pyrimidine synthesis flux [3]: similarly reduced | rescue from MTHFD2 inhibitor-mediated cell death ([4]; HeyA8 ectopically expressing alternative oxidase AOX): partially rescued | rescue from MTHFD2 inhibitor-mediated cell death ([4]; HeyA8 overexpressing UQCR11): partially rescued | effect of co-inhibition on viability [5]: synergistic effect
